Data reported in patent US20230135366A1, “LIPOIC ACID CHOLINE ESTER COMPOSITIONS AND METHODS TO STABILIZE INTO […] RELEVANT DRUG PRODUCTS” (NOVARTIS AG, priority 2016, published 2023).
Like-named read-outs stand apart in the source and are kept apart here.

Columns and labels:
[1] = HPLC related compounds / related substances (oxidized LACE, lipoic acid, total impurities) of LACE solutions, mixing and stability studies; type: physicochemical
Experimental: Each of the solutions was also measured for degradants of lipoic acid choline ester. As mentioned earlier, the degradation mechanism of LACE is oxidative and hydrolytic, resulting in oxidized and hydrolyzed species.
• a) HPLC Method Setup: The HPLC assay consisted of a 50 minute mobile phase gradient made up of (A) 0.05M sodium phosphate monobasic, 0.005M 1-heptane sulfonic acid sodium salt, 0.2% v/v triethylamiue, adjusted to pH 4.5 with phosphoric acid; and (B) acetonitrile. The analytical column used is a YMC Pack ODS AO (4.6×250 mm, 5 μm, 120 Å), P/N AQ125052546WT; the analytical detection wavelength is 225 nm.
The eve dropper bottles with the two formulations were stored at 25° C. in a temperature-controlled incubator, and 0.5 mL (about 10 drops) sampled at each time point for analysis of related substances (by HPLC). The nitrogen blanket was not replenished, so some air got into the bottle with each sampling. This experiment was an early investigation of stability at room temperature (25±0.1° C.) with no protection from oxygen with continued sampling.
For the stability studies on both the clinical LACE-Chloride and the prototype LACE-Iodide formulation with a 1:1 molar ratio of HP-B-CD to LACE, the formulations were filtered, filled into LDPE eye dropper bottles, blanketed with nitrogen, and then placed inside barrier foil pouches with an oxygen scavenger. It is likely that some oxygen was still present in the pouch to start. After the first time point following T=0, however, the rise in oxidized LACE species stops, even at elevated temperatures, likely due to depletion of the remaining oxygen (FIG. 20).

[2] = Appearance of ophthalmic solution in stability studies; type: physicochemical; details: API (Lot# 011510)
Experimental: in an effort to stabilize the drug formulation further, systematic stability studies (5° C., 25° C. and 40° C.) on mid-scale R&D batches were undertaken with bottled EV06 Ophthalmic Solution in the presence and absence of oxygen scavenging packets contained in zip-lock, vapor impermeable foil pouches.

[3] = Osmolality of formulation; type: physicochemical
Experimental: • The requisite osmolality range for drug-containing formulations and placebo is 280-320 mOsm/kg. Preferably, all LACE formulations need to he within 290-310 mOsm/Kg. • Since LACE has contributions to osmolality, each formulation will have varying concentrations of glycerol to achieve the requisite osmolality.
The target for Total Osmolality was 300 mOsm/kg.
Accordingly, a full series of solutions was prepared with slightly altered target osmolalities for the solutions without LACE, and therefore different target glycerol contents. All solutions were prepared using the same Alanine/Benzalkonium Chloride, pH 4.5 stock solution used in the placebos, so that the final composition was consistently: • 0.5% (5 mg/g) Alanine • 0.005% (0.05 mg/g) Benzalkonium Chloride • Small amounts of 1N Sodium Hydroxide, 1N Hydrochloric Acid, to adjust pH to 4.5 • Water for Inhalation (added to final weight of 5.0 g per formulation)

ocular surface = assay: Ocular irritation in rabbit irritation model (rabbit Draize model); type: in vivo
Text: Another issue that confounded the pharmaceutical development of LACE ophthalmic solutions was incidences of ocular surface irritation observed in-vivo in a rabbit irritation model. The invention details unexpected parameters that contributed to, or caused ocular irritation and processes to eliminate or minimize these parameters. These parameters were not related to the formulation composition or properties of the drug substance, factors that normally correlated or attributed to ocular irritation.
FIGS. 12A and 12B generally provide a snapshot of the correlation of irritation to the micellar LACE species over a number of batches compounded.
Example 16 established the correlation between concentration of associative species and ocular irritation in an in-vivo model (rabbit Draize model).

[4] = General properties of LACE (solubility, solution pH, Log P, hygroscopicity); type: physicochemical; details: for solubility: read-out: Solubility Profile
[5] = RP-HPLC (UV / ELSD) measurement of LACE micellar / associative (aggregated) species; type: physicochemical; details: for equilibrium concentration of aggregates (% of the API peak): aqueous solution
Text: While searching for causes for irritation, it was discovered that LACE, when dissolved in water, forms micelles and micellar aggregates, common to compounds that are amphiphilic in nature. As definition, examples of micelle-forming compounds are phosphatidyl choline, pegylated phosphatidyl choline, PEG-stearate, […], etc. While the micelle-formation phenomenon of LACE is not unexpected due to the amphiphilic nature of the molecule, the formation of these aggregates at lower temperatures were surprising. The presence of the aggregates was measured by a RP-HPLC method developed in-house. The measurement could be performed both with HPLC-UV and HPLC-ELSD. […] The equilibrium concentration of LACE Iodide aggregates are 39-41% of the API peak. In comparison, the equilibrium concentration of LACE chloride is <1%, after dispersion with agitated stirring.
• Two 200-g batches of 1.5% LACE Chloride were prepared at 25° C. after vehicle was deoxygenated with bubbled nitrogen. […] At time-points of 1 h, 3 h, 4 h, 6 h, 8 h, 9 h, and 24 h, about 5-15 mL was removed by syringe and sterile-filtered into eye-dropper bottles (5 mL/bottle), without nitrogen overlay in the bottle (apparatus was in use for the bulk batches). • Samples of all time-points were diluted to 10 mg/g, and then injected for RP-HPLC analysis with ELK.) detection within 30 minutes of removal from the bulk solution. • After the 24-hour time-point, bulk solutions were sterile-filtered, and each divided into two ˜50 mL portions—one held at 5° C., the other 50-mL portion held at 25° C. All portions were overlaid with nitrogen blown into the vessel. • At the end of the additional 24-hour hold time, each portion was filled into eye-dropper bottles with a nitrogen overlay in the bottle.
The final diluted LACE concentration was targeted to the level appropriate for RP-HPLC analysis (12.8 mg/mL of LACE-Iodide).
The approach was to generate complete inclusion complexes of LACE-Iodide in HP-B-CD, thus preventing any opportunity of aggregation of LACE molecules. Several batches of formulation were prepared using varying molar ratios of LACE-Iodide to HP-B-CD and the growth of aggregative species assessed over time. The formulations were stored at 5° C. The formation of associative species as measured by reverse phase HPLC was then reported as the area percent relative to the main LACE peak area.

bovine calf cornea [6] = assay: Corneal permeability, Franz Cell Diffusion apparatus; details: Study 1
Experimental: (§1) LACE is delivered from these formulations as one of two salts: LACE-chloride and LACE-iodide. […] Therefore, both LACE and lipoic acid concentrations were assayed at each time point to evaluate permeability.
(§2) • a. 6 bovine eyeballs are dissected in a sterile laminar flow hood. • b. The corneas are extracted from the eyeball, briefly rinsed in sterile double-distilled water, and submerged in 3 mL of glutathione buffer (0.1% glutathione, oxidized, 6 mM sodium phosphate, pH 7, sterile-filtered) in a sterile culture dish. • c. The corneas are kept at 5° C. and used within 24 hours of excision. • d. Six 5 mL Franz vertical diffusion cells are cleaned with distilled water and isopropanol and air dried in a laminar flow cabinet prior to set up. • e. A small stir bar is placed within the receptor fluid chamber. The bottle of receptor fluid (5 mM phosphate-buffered saline with 0.1% Tween 20, pH 7.4, sterile-filtered) is tared on an analytical balance, and 4.5 mL of it is added to each Franz cell. The exact weight of the starting receptor fluid is recorded. • f. The cornea is gently rinsed of glutathione buffer with receptor fluid, and is placed on the donor pedestal. The donor chamber is placed on top of the cornea, and the entire assembly is fastened to the pedestal with a metal clip. At this point, 0.5 mL of additional receptor fluid is added via the sampling arm, until the fluid level reaches the point marked on the arm with a black line. The weight of this addition is also recorded. • g. The Franz diffusion apparatus is connected to a heater unit, and the temperature is raised to 37° C. When that temperature is reached, the formulation (“the donor solution”) is added to the donor chamber. • h. 0.2 mL of donor solution is added. Both the donor chamber and sampling arm are covered by paraffin when not in use to prevent evaporation. • i. Sampling is done via Drummond pipet, and only through the sampling arm. 200-300 μL of receptor fluid is sampled from each cell at each time point. • j. The sample is added to an amber glass HPLC vial with 0.3 mL glass insert, and is weighed. […]

bovine calf cornea [7] = tested on: bovine calf cornea
Experimental: as §1, §2

[8] = API (Lot# 011510), RS analyzed Mar. 22, 2016
[9] = API (drug substance), lot AC-LACE-05-39 stored at 5 °C
[10] = Table 16-3, API (drug substance)
[11] = Table 17-1, API (drug substance)
[12] = Table 17-2, API (drug substance)
[13] = Table 17-3, API (drug substance)
[14] = Table 18-1, API (drug substance)
[15] = Table 18-2, API (drug substance)

## C[N+](C)(C)CCOC(=O)CCCC[C@@H]1CCSS1.[I-] [API (Lot# 011510)]
[1]; [8]
  API Related Substances, Oxid. LACE RRT 0.48: 0.08%
  API Related Substances, Oxid. LACE RRT 0.52: 0.04%
  API Related Substances, RRT 1.74: 0.24%
  API Related Substances, RRT 2.00: 0.20%
  API Related Substances, Total Imp.: 0.56%
[2]
  Appearance: Complies

## C[N+](C)(C)CCOC(=O)CCCC[C@@H]1CCSS1 [LACE, lipoic acid choline ester]
[3]; earlier formulations
  additional osmolality for every 1% LACE, average: 48 mOsm/kg
[3]; earlier formulations, range
  additional osmolality for every 1% LACE: 44-55 mOsm/kg
[3]; from Table 6 solutions
  effect of LACE on osmolality for every 1%: 57-60 mOsm/kg
Ocular surface; compounded at room temperature
  ocular irritation: comfortable and non-irritating

## C[N+](C)(C)CCOC(=O)CCCC[C@@H]1CCSS1 [LACE Chloride, Lipoic Acid Choline Ester Chloride]
[4]
  Hygroscopicity: Highly hygroscopic
  Solution pH: 7-7.5
  logP: < 2
[4]; in water
  solubility: > 50 mg/mL
[4]; organic solvent or mixture, in acetonitrile
  solubility: > 4 mg/mL
[5]; after dispersion with agitated stirring
  equilibrium concentration of aggregates (% of the API peak): < 1%
[5]; formulated under argon and refrigerated conditions
  percent micellar species (% of the main LACE API Peak): 8-10%
Ocular surface; solution formulated at refrigerated temperatures
  ocular irritation: extremely irritating
Bovine calf cornea [6]
  permeated species: somewhat more intact LACE permeated

## C[N+](C)(C)CCOC(=O)CCCC[C@@H]1CCSS1.[Cl-] [API]
[1]; API (drug substance)
  Related Substances RRT 1.00 API: 99.13 Area %
  Related Substances RRT 1.65: 0.34 Area %
  Related Substances RRT 4.05 Lipoic Acid: 0.13 Area %
  Related Substances, RRT 0.49: 0.19 Area %
  Related Substances, RRT 0.61 Oxidized Lace: 0.04 Area %
  Related Substances, RRT 0.68 Oxidized Lace: 0.04 Area %
  Related Substances, RRT 1.36: 0.34 Area %
  Related Substances, RRT 1.52: 0.34 Area %
  Related Substances, RRT 1.73: 0.17 Area %
  Related Substances, RRT 1.86: 0.17 Area %
  Related Substances, RRT 4.11 Lipoic Acid: 0.13 Area %
  Total Impurities: 0.87 Area %
[1]; API (drug substance), lot AC-LACE-05-21 stored at 5 °C
  Related Substances RRT 0.51: 0.19 Area %
[1]; [9]
  Related Substances RRT 0.51: 0.10 Area %
  Related Substances RRT 2.28: 0.17 Area %
[1]; API (drug substance), lot AC-LACE-05-39 stored at 25 °C
  Related Substances RRT 2.28: 0.13 Area %
[1]; [10]
  Related Substances RRT 0.51: 0.10 Area %
  Related Substances RRT 0.68: 0.04 Area %
  Related Substances RRT 1.00: 99.13 Area %
  Related Substances RRT 1.65: 0.34 Area %
  Related Substances RRT 2.28: 0.17 Area %
  Related Substances RRT 4.05: 0.13 Area %
  Total Impurities: 0.87 Area %
[1]; [11]
  Related Substances RRT 0.50: 0.20 Area %
  Related Substances RRT 0.59: 0.04 Area %
  Related Substances RRT 1.27: 0.34 Area %
  Related Substances RRT 1.42: 0.17 Area %
  Related Substances RRT 3.00: 99.13 Area %
  Related Substances RRT 3.07: 0.13 Area %
  Total Impurities: 0.87 Area %
[1]; [12]
  Related Substances RRT 0.50: 0.20 Area %
  Related Substances RRT 0.59: 0.04 Area %
  Related Substances RRT 1.00: 99.13 Area %
  Related Substances RRT 1.27: 0.34 Area %
  Related Substances RRT 1.42: 0.17 Area %
  Related Substances, Lipoic Acid (RRT not given): 0.13 Area %
  Total Impurities: 0.87 Area %
[1]; [13]
  Related Substances RRT 0.50: 0.20 Area %
  Related Substances RRT 0.59: 0.04 Area %
  Related Substances RRT 1.00: 99.13 Area %
  Related Substances RRT 1.27: 0.34 Area %
  Related Substances RRT 1.42: 0.17 Area %
  Related Substances RRT 3.07 Lipoic Acid: 0.13 Area %
  Total Impurities: 0.87 Area %
[1]; [14]
  Related Substances RRT 0.51: 0.10 Area %
  Related Substances RRT 0.68: 0.04 Area %
  Related Substances RRT 1.00 API: 99.13 Area %
  Related Substances RRT 1.65: 0.34 Area %
  Related Substances RRT 2.28: 0.17 Area %
  Related Substances RRT 4.05 Lipoic Acid: 0.13 Area %
  Total Impurities: 0.87 Area %
[1]; [15]
  Related Substances RRT 0.51: 0.10 Area %
  Related Substances RRT 0.68: 0.04 Area %
  Related Substances RRT 1.00 API: 99.13 Area %
  Related Substances RRT 1.65: 0.34 Area %
  Related Substances RRT 2.28: 0.17 Area %
  Related Substances RRT 4.05 Lipoic Acid: 0.13 Area %
  Total Impurities: 0.87 Area %

## C[N+](C)(C)CCOC(=O)CCCCC1CCSS1.[I-] (stereo not shown) [LACE Iodide]
[5]
  equilibrium concentration of aggregates (% of the API peak): 39-41%
[5]; at the end of 8 hours of mixing
  aggregated species (% of the API): ≤ 39%
[5]; direct dissolution: Buffer with 0.6% NaCl, 1.5% PG
  % Associative Species at T0: 40.9%
[5]; direct dissolution: Buffer with 1.8% NaCl
  % Associative Species at T0: 34.7%
[5]; direct dissolution: Ethanol (78% final), then Buffer (22%)
  % Associative Species at T0: 0.0%
[5]; direct dissolution: Propylene Glycol (10%), then Buffer (90%)
  % Associative Species at T0: 11.7%
Bovine calf cornea [7]
  overall percent of drug permeated: 3-7%
  permeated species: almost entirely lipoic acid
